Reference: patent publication US20220160712A1, “METHODS OF TREATING RHEUMATOID ARTHRITIS AND FOR PREDICTING THE RESPONSE TO METHOTREXATE” (CHAN ZUCKERBERG BIOHUB, INC., priority 2020, published 2022)

Tested on: complex human gut microbial community
Experiment: Ex vivo incubation of RA patient stool samples with MTX
Type: cell-based
Experimental: All work was carried out in an anaerobic chamber. For each patient, stool was aliquoted into a pre-equilibrated cryovial, diluted in reduced PBS at 10 ml per 1 gram of stool, and vortexed to homogenize the sample. The sample was spun at ˜20 g for 1 minute on a mini-centrifuge to facilitate settling of sediment, and the sediment-free supernatant was then aliquoted into a new pre-equilibrated cryovial for evaluation of ex vivo growth. Growth was evaluated by inoculating liquid BHI with 1:50 dilution of this fecal slurry, with OD600 readings performed every 15 minutes for 48 hours with a 2-minute shake prior to each reading. Samples were treated with MTX 100 μg/ml or an equal volume of DMSO at time zero. Each patient's fecal slurry and treatment was evaluated in quadruplicate. Samples from four individuals (Donors 2, 4, 5, and 6) underwent 16S sequencing and analysis at 0 and 24 hours after of treatment with either DMSO or MTX treatments (4 replicates per treatment group) as described in the section titled “16S-seq of humanized mouse gut microbiota.”
Reads that were not already demultiplexed were demultiplexed using QIIME (Caporaso et al., 2010) v1.9.1 (split_libraries_fastq.py). For all reads except NYU RA patient samples, QIIME2 (Bolyen et al., 2019)(v 2020.2) was used to trim reads, denoise the data, and create a feature table using the following commands: qiime cutadapt trim-paired, qiime dada2 denoise-paired, qiime feature-table filter-samples. Within QIIME2, taxonomy was assigned using the DADA2 et al., (2016), Nat Methods 13, 581-583) implementation of the RDP Naïve Bayesian classifier (Wang, Q., et al., (2007), Appl Environ Microbiol 73, 5261-5267) using the DADA2-formatted SILVA v128 training set; taxonomic assignments to the species level were chosen by exact match of the ASV to the reference database, and where multiple matches were present, all are reported. For figures and in the text, genus and species assignments are reported when available, and when neither was available, the family taxonomic assignment was included; a unique ASV identifier is also reported. This ASV identifier can be used to look up the full taxonomic assignment from kingdom to species and the associated sequence variant in Table S2B. A phylogenetic tree was constructed in QIIME2 using the command: phylogeny align-to-tree-mafft-fasttree. The QIIME2R package was used to import QIIME2 artefacts into R (https://github.com/jbisanz/qiime2R). For RA patient samples from NYU, reads were demultiplexed using QIIME (Caporaso et al., 2010) v1.9.1 (split_libraries_fastq.py) before denoising and processing with DADA2 (Callahan et al., 2016a) v1.1.5 under MRO v3.2.5. Taxonomy was assigned using the DADA2 implementation of the RDP classifier (Wang et al., 2007) using the DADA2-formatted SILVA v128 training set (benjjneb.github.io/dada2/assign.html). Low abundance taxa were filtered out […] as well as ASVs that could not be assigned taxonomy past the kingdom level. Diversity metrics were generated using Vegan (v2.5-6) and Phyloseq (v1.30.0) (McMurdie, P.J., and Holmes, S. (2013), PLoS One 8, e61217), with principal coordinate analysis (PCoA) or principal components analysis (PCA) carried out with Ape (v5.3) or Vegan, respectively. Analyses were carried out on either: (1) centered log2-ratio (clr) normalized taxonomic abundances calculated as Aclr=[log2(A1/ga), log2(A2/ga), . . . log2(An/ga),], where A is a vector of non-zero read counts and ga is the geometric mean of all values of A, or (2) relative abundance calculated as proportion of reads. ANOSIM and PERMANOVA were used to detect changes in community composition using counts from rarefied data and Bray-Curtis distances. DESeq2 (v1.26.0) (Love, M. I., et al., (2014), Genome Biol 15, 550) was used to determine differentially abundant taxa on raw count data. Some ASVs were reported to have log2 fold changes that were 20 or higher. […]

[1] = MTX 100 μg/ml, 24 hours, 4 ex vivo communities, padj<0.01

CN(Cc1cnc2nc(N)nc(N)c2n1)c1ccc(C(=O)N[C@@H](CCC(=O)O)C(=O)O)cc1 [MTX, methotrexate]
number of genera with significant shifts in abundance (MTX 100 μg/ml): 17
Actinobacteria abundance [1]: increased
Bacteroidetes abundance [1]: decreased
lag phase (MTX 100 μg/ml, 48 hours): significant delay
carrying capacity (MTX 100 μg/ml, 48 hours, p=1.9×10-6, paired Student's t-test): significant decrease
richness (16S-seq of endpoint samples) (MTX 100 μg/ml, 4 patient samples): significant decrease
number of ASVs with significant shifts in abundance (MTX 100 μg/ml, padj<0.01, DESeq): 20
growth of complex microbial communities (stool of 30 MTX-naive patients, MTX 100 μg/ml vs vehicle, 48 hours): significantly impaired
